# Experimental data taken from PMC6767204, “Synthesis and Biological Evaluation of Disubstituted Pyrimidines as Selective 5-HT2C Agonists” (Molecules, 2019).
# Read-outs that look alike come from different tables or passages of the source.
# What was measured:
# Plasma stability = type: in vitro ADME; details: human plasma, 37 °C
# 5-HT5A receptor = target: T1, 5-HT5A receptor (Homo sapiens, UniProt P47898); assay: 5-HT receptor radioligand binding affinity assay, 5A
# T1 construct: expressed in transfected cells; host or cells: HEK293 or CHO
# T1 sequence (P47898 whole entry): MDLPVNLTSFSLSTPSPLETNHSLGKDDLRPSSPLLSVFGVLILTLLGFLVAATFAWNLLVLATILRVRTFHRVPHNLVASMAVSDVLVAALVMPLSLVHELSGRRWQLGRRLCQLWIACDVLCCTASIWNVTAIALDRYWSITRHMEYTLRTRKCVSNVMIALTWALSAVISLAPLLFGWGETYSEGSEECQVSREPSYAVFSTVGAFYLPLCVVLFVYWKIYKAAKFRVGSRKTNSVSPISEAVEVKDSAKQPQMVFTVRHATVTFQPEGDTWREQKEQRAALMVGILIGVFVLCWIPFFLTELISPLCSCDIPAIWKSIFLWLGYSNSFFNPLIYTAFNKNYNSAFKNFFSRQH
# Description: (§1) Eleven dilutions (5 x assay concentration) of the test and reference compounds (Table S1) were prepared in standard binding buffer (50 mM tris(hydroxymethyl)-aminomethane–HCl (Tris-HCl), 10 mM MgCl2, 1 mM ethylenediaminetetraacetate (EDTA), pH 7.4) by serial dilution: 0.05 nM, 0.5 nM, 1.5 nM, 5 nM, 15 nM, 50 nM, 150 nM, 500 nM, 1.5 μM, 5 μM, and 50 μM. The radioligand (Table S1) was diluted to five times the assay concentration in standard binding buffer. Aliquots (50 μL) of the radioligand were dispensed into the wells of a 96-well plate containing 100 μL of standard binding buffer. Triplicate aliquots (50 μL) of the test and reference compound dilutions were then added. Finally, crude membrane fractions (50 μL) of cells (HEK293 or CHO) expressing human recombinant receptors were dispensed into each well. A total 250 μL of the reaction mixtures was incubated at room temperature and shielded from light for 1.5 h, then harvested by rapid filtration onto Whatman GF/B glass fiber filters presoaked with 0.3% polyethyleneimine, by using a 96-well Brandel harvester.
# (§2) Four rapid washes were performed with chilled standard binding buffer (500 μL) to decrease nonspecific binding. Filters were placed in 6 mL scintillation tubes and allowed to dry overnight. The next day, 4 ml of EcoScint scintillation cocktail (National Diagnostics) was added to each tube. The tubes were capped, labeled, and counted by liquid scintillation counting. The filter mats were dried, and the scintillant was melted onto the filters, then the radioactivity retained on the filters was counted in a Microbeta scintillation counter. The IC50 values were obtained by using the Prism 4.0 program (GraphPad Software, San Diego, CA) and converted into Ki values. Each compound was tested in triplicate at least.
# (§3) 3. Radioligands and reference compounds for binding assay
# (§4) Table S1. A list of 5-HT receptor radioligands and reference compounds for binding assay. […]
# 5-HT2C receptor [1] = target: T2, 5-HT2C receptor (Homo sapiens, UniProt P28335); assay: 5-HT2C receptor cell-based functional assay (agonist mode, fluorescence-based); details: Table 2; serotonin as reference compound
# T2 sequence (P28335 33-458): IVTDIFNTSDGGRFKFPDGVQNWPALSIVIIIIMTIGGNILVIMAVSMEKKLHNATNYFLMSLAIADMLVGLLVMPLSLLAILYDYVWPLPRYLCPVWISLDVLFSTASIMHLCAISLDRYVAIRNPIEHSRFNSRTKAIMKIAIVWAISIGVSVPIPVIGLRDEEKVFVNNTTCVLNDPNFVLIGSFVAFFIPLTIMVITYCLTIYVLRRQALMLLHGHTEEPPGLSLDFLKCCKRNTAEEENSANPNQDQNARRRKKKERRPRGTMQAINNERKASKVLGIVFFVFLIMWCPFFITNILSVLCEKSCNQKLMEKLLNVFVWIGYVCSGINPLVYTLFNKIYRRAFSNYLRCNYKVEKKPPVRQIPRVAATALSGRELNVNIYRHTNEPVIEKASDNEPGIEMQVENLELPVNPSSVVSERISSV
# Description: The synthesized compounds were tested in agonist mode with the 5-HT2C receptor assay using recombinant human HEK-293 cells serviced by either Eurofins Cerep or DGMIF (Daegu-Gyeongbuk Medical Innovation Foundation). All the experiments were duplicated.
# 5-HT1A receptor = target: T3, 5-HT1A receptor (Homo sapiens, UniProt P08908); assay: 5-HT receptor radioligand binding affinity assay, 1A; details: for SI, selectivity index, 1A: subtype Ki divided by 5-HT2C Ki
# T3 construct: expressed in transfected cells; host or cells: HEK293 or CHO
# T3 sequence (P08908 1-422): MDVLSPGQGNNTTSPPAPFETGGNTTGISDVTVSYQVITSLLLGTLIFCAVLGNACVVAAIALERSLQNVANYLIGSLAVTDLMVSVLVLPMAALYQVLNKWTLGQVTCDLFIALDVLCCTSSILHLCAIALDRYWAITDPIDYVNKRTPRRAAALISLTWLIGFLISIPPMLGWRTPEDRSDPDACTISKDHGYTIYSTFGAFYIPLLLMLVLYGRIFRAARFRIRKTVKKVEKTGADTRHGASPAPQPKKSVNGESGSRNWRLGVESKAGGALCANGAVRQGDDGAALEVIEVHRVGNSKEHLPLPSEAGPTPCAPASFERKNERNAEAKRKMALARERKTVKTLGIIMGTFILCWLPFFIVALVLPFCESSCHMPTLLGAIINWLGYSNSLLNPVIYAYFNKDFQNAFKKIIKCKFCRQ
# Description: as §1, §2, §3
# (§5) Table S1. A list of 5-HT receptor radioligands and reference compounds for binding assay.
# (§6) Receptor subtype Radioligand Reference compound
# (§7) 1A [3H]8-OH-DPAT Methysergide
# (§8) 2A [3H]Ketanserin Chlorpromazine
# (§9) 2C [3H]Mesulergine Chlorpromazine
# 5-HT6 receptor = target: T4, 5-HT6 receptor (Homo sapiens, UniProt P50406); assay: 5-HT receptor radioligand binding affinity assay, 6; details: for SI, selectivity index, 6: subtype Ki divided by 5-HT2C Ki
# T4 construct: expressed in transfected cells; host or cells: HEK293 or CHO
# T4 sequence (P50406 whole entry): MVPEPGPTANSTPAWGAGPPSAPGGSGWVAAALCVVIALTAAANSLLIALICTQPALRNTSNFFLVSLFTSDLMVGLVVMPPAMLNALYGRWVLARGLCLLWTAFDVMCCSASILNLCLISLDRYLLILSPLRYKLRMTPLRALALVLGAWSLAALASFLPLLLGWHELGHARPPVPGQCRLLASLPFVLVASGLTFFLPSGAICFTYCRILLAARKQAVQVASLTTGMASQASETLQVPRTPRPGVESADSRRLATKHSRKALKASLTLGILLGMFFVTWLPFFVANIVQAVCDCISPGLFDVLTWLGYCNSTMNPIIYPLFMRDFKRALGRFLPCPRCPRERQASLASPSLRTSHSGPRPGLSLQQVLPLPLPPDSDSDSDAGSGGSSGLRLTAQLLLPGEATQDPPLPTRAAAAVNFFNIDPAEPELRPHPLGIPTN
# Description: as §1, §2, §3, §5, §6, §7, §8, §9
# Microsomal stability = type: in vitro ADME; details: pH 7.4, human liver microsomes, read-out: HLM %Remaining @ 1 μM after 0.5 h
# Description: To human liver microsomes (0.5 mg/mL) were added 0.1 M phosphate buffer (pH 7.4) and tested compounds (1 μM).
# 5-HT7 receptor = target: T5, 5-HT7 receptor (Homo sapiens, UniProt P34969); assay: 5-HT receptor radioligand binding affinity assay, 7; details: for SI, selectivity index, 7: subtype Ki divided by 5-HT2C Ki
# T5 construct: expressed in transfected cells; host or cells: HEK293 or CHO
# T5 sequence (P34969 whole entry): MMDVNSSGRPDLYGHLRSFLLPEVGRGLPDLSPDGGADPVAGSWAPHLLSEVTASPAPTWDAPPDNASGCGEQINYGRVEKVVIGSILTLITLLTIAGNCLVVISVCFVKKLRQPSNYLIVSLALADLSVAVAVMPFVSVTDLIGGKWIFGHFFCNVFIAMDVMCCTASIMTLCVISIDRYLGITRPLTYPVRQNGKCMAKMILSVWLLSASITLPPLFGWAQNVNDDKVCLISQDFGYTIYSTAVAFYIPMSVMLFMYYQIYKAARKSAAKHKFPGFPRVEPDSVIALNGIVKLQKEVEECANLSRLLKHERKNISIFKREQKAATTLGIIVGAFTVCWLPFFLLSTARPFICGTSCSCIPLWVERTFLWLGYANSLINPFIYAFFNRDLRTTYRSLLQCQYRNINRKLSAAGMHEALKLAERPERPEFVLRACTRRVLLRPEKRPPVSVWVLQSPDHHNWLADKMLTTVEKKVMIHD
# Description: as §1, §2, §3, §5, §6, §7, §8, §9
# 5-HT1D receptor = target: T6, 5-HT1D receptor (Homo sapiens, UniProt P28221); assay: 5-HT receptor radioligand binding affinity assay, 1D; details: for SI, selectivity index, 1D: subtype Ki divided by 5-HT2C Ki
# T6 construct: expressed in transfected cells; host or cells: HEK293 or CHO
# T6 sequence (P28221 whole entry): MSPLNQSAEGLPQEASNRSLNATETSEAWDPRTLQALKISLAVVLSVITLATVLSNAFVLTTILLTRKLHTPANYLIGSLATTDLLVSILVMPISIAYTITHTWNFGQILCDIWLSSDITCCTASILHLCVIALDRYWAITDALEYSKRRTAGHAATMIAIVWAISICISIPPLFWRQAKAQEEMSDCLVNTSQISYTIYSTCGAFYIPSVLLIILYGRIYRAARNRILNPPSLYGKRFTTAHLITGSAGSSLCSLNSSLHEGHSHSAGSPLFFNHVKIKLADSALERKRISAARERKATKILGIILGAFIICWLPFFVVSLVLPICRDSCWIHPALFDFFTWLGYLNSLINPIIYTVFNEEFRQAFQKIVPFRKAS
# Description: as §1, §2, §3, §5, §6, §7, §8, §9
# 5-HT1B receptor = target: T7, 5-HT1B receptor (Homo sapiens, UniProt P28222); assay: 5-HT receptor radioligand binding affinity assay, 1B
# T7 construct: expressed in transfected cells; host or cells: HEK293 or CHO
# T7 sequence (P28222 whole entry): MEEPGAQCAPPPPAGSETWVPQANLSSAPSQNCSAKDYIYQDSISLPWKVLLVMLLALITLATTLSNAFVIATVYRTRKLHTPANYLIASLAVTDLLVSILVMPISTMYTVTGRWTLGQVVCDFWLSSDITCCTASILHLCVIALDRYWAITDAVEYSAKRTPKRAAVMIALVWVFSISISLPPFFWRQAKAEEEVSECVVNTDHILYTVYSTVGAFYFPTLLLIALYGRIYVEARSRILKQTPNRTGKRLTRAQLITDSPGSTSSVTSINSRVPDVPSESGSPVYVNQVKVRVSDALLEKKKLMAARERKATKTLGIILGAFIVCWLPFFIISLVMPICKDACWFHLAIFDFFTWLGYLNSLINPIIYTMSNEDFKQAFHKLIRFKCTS
# 5-HT2A receptor [2] = target: T8, 5-HT2A receptor (Homo sapiens, UniProt P28223); assay: 5-HT receptor radioligand binding affinity assay, 2A; details: for SI, selectivity index, 2A: subtype Ki divided by 5-HT2C Ki
# T8 construct: expressed in transfected cells; host or cells: HEK293 or CHO
# T8 sequence (P28223 whole entry): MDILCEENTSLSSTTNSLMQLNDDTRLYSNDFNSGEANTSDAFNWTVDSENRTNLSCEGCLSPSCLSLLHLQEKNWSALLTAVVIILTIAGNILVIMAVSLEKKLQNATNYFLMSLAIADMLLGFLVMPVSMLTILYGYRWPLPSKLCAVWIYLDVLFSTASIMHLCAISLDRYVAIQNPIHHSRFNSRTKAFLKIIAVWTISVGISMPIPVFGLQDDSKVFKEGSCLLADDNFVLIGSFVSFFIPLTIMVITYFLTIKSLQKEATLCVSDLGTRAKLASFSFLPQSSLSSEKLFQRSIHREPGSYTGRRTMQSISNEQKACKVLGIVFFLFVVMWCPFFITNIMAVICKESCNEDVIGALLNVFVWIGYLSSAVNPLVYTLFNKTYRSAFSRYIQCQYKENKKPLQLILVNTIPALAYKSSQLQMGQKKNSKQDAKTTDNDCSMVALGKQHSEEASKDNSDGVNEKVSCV
# Description: as §1, §2, §3, §5, §6, §7, §8, §9
# 5-HT2B receptor = target: T9, 5-HT2B receptor (Homo sapiens, UniProt P41595); assay: 5-HT receptor radioligand binding affinity assay, 2B; details: for SI, selectivity index, 2B: subtype Ki divided by 5-HT2C Ki
# T9 construct: expressed in transfected cells; host or cells: HEK293 or CHO
# T9 sequence (P41595 whole entry): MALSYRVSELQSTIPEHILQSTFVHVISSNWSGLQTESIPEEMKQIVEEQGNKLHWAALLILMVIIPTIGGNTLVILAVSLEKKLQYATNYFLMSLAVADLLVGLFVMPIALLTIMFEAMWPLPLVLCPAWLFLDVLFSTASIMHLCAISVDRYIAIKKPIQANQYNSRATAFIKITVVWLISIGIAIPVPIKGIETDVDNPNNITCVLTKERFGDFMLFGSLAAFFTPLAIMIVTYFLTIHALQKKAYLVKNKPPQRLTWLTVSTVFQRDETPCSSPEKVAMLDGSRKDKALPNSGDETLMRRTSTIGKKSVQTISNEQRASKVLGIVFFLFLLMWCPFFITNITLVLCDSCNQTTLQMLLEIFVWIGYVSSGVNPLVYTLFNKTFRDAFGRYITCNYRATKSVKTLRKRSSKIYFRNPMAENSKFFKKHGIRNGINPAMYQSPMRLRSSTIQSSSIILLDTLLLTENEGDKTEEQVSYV
# Description: as §1, §2, §3, §5, §6, §7, §8, §9
# 5-HT1E receptor = target: T10, 5-HT1E receptor (Homo sapiens, UniProt P28566); assay: 5-HT receptor radioligand binding affinity assay, 1E
# T10 construct: expressed in transfected cells; host or cells: HEK293 or CHO
# T10 sequence (P28566 whole entry): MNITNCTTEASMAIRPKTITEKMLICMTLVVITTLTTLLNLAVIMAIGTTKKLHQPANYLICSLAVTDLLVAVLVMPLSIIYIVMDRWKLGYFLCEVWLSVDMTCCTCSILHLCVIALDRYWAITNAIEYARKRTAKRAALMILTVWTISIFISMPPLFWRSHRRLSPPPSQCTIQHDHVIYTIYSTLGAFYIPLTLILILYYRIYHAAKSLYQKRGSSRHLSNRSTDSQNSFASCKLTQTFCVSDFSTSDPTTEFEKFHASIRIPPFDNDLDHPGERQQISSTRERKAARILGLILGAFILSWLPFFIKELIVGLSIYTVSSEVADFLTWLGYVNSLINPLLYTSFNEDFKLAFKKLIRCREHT
# Description: as §1, §2, §3, §4
# [3] = tested on: five human CYP450 isozymes; assay: CYP inhibition, all tested isozymes; details: all the tested CYP isozymes
# Description: CYP inhibition values against five human CYP450 isozymes were recorded as % remaining activity values of the given isozymes.
# After incubation at 37 °C for 5 min, NADPH generation system solution was also added and incubated at 37 °C for 15 min again. To terminate the reaction, acetonitrile including internal standard (Terfenadine) was added, and the solution was centrifuged for 5 min (14,000 rpm, 4 °C).
# 5-HT3 receptor = target: T11, 5-HT3 receptor (Homo sapiens, UniProt P46098); assay: 5-HT receptor radioligand binding affinity assay, 3; details: for SI, selectivity index, 3: subtype Ki divided by 5-HT2C Ki
# T11 construct: expressed in transfected cells; host or cells: HEK293 or CHO
# T11 sequence (P46098 24-478): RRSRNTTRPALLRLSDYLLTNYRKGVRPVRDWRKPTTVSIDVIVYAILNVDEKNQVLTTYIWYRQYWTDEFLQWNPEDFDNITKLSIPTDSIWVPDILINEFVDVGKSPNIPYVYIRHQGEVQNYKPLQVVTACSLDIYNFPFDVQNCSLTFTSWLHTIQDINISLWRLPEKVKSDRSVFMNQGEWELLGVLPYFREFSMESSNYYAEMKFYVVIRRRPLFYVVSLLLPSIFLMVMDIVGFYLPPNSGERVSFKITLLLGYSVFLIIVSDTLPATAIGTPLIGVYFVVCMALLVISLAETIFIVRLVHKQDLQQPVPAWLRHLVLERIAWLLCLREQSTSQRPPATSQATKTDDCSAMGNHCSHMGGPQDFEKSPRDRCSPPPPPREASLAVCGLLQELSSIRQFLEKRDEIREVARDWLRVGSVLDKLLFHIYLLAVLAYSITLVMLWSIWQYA
# Description: as §1, §2, §3, §5, §6, §7, §8, §9
# 5-HT2C receptor [4] = target: T2, 5-HT2C receptor; assay: 5-HT receptor radioligand binding affinity assay, 2C; parameters: expressed in transfected cells; details: for %Binding at 10 μM, 2C: Table 3; for %binding / Ki: Table 2; for SI, selectivity index, 2C: subtype Ki divided by 5-HT2C Ki
# Description: as §1, §2, §3, §5, §6, §7, §8, §9
# 5-HT2A receptor [5] = target: T8, 5-HT2A receptor; parameters: method as in PMID 28846591; details: Figure 2; cited from earlier work
Compound,"%Binding at 10 μM, 5A (5-HT5A receptor)",Ki (5-HT1A receptor) [nM],"%Binding at 10 μM, 1A (5-HT1A receptor) [%]","SI, selectivity index, 1A (5-HT1A receptor)",Ki (5-HT6 receptor) [nM],"%Binding at 10 μM, 6 (5-HT6 receptor) [%]","SI, selectivity index, 6 (5-HT6 receptor)",Ki (5-HT7 receptor) [nM],"%Binding at 10 μM, 7 (5-HT7 receptor) [%]","SI, selectivity index, 7 (5-HT7 receptor)",Ki (5-HT1D receptor) [nM],"%Binding at 10 μM, 1D (5-HT1D receptor) [%]","SI, selectivity index, 1D (5-HT1D receptor)","%Binding at 10 μM, 1B (5-HT1B receptor)",Ki (5-HT2A receptor [2]) [nM],"%Binding at 10 μM, 2A (5-HT2A receptor [2]) [%]","SI, selectivity index, 2A (5-HT2A receptor [2])",Ki (5-HT2B receptor) [nM],"%Binding at 10 μM, 2B (5-HT2B receptor) [%]","SI, selectivity index, 2B (5-HT2B receptor)",further results
"C[C@@H](Oc1nc(N2CCCNCC2)ncc1F)c1cccc(F)c1 [10a, (R)-1-(5-fluoro-4-(1-(3-fluorophenyl)ethoxy)pyrimidin-2-yl)-1,4-diazepane]",22.5 /ND %,578,74.1,73.2,348,50.7,44.1,1020,61.3,128.6,679,71.4,85.9,56.1%,1280,75.5,162.5,83,98.0,10.5,"remaining at 0.5 h, 10 μM (Plasma stability; 0.5 h, read-out: Plasma Stability %Remaining @ 10 μM after 0.5 h): 99.9%; remaining at 2 h, 10 μM (Plasma stability; 2 h, read-out: Plasma Stability %Remaining @ 10 μM after 2 h): 98%; %activation (5-HT2C receptor [1]): 81.0%; remaining at 0.5 h, 1 μM (Microsomal stability): 96.6%; Ki (5-HT1B receptor): 3240 nM; SI, selectivity index, 1B (5-HT1B receptor; subtype Ki divided by 5-HT2C Ki): 409.7; %Binding at 10 μM, 1E (5-HT1E receptor): 43.1 /ND^b %; %remaining activity of isozymes [3]: > 60%; Ki (5-HT3 receptor): 323 nM; %Binding at 10 μM, 3 (5-HT3 receptor): 89.0%; SI, selectivity index, 3 (5-HT3 receptor): 40.9; %Binding at 10 μM, 2C (5-HT2C receptor [4]): 81.3%; selectivity for other 5-HT receptor subtypes, difference in potency (5-HT2C receptor [4]; 5-HT2C versus other 5-HT receptor subtypes): greater than 10 fold; %binding (5-HT2C receptor [4]): 81.3%; Ki (5-HT2C receptor [4]): 7.9 nM; SI, selectivity index, 2C (5-HT2C receptor [4]): 1.0"
"C[C@@H](Oc1nc(N2CCCNCC2)ncc1F)c1ccc(F)cc1 [10f, (R)-1-(5-fluoro-4-(1-(4-fluorophenyl)ethoxy)pyrimidin-2-yl)-1,4-diazepane]",15.2 /ND %,1070,67.6,56.1,467,56.5,24.6,616,55.4,32.4,937,81.3,49.3,19.2 /ND^b %,2860,52.9,150.7,118,95.0,6.2,"%activation (5-HT2C receptor [1]): 52.4%; %Binding at 10 μM, 1E (5-HT1E receptor): 31.3 /ND^b %; Ki (5-HT3 receptor): 415 nM; %Binding at 10 μM, 3 (5-HT3 receptor): 88.0%; SI, selectivity index, 3 (5-HT3 receptor): 21.8; %binding (5-HT2C receptor [4]): 93.9%; Ki (5-HT2C receptor [4]): 19 nM; SI, selectivity index, 2C (5-HT2C receptor [4]): 1.0"
"C[C@@H]1CNCCN1c1ncc(F)c(O[C@H](C)c2ccc(F)cc2)n1 [compound 8, reference compound]",18.5 /ND^b %,271,89.1,45.9,30,56.7,5.1,528,63.4,89.5,1050,83.4,178.3,4.9 /ND^b %,511,85.3,86.6,38,98.1,6.4,"Ki (5-HT2A receptor [5]): 1280 nM; %Binding at 10 μM, 1E (5-HT1E receptor): 48.0 /ND^b %; Ki (5-HT3 receptor): 543 nM; %Binding at 10 μM, 3 (5-HT3 receptor): 83.4%; SI, selectivity index, 3 (5-HT3 receptor): 92.0; %Binding at 10 μM, 2C (5-HT2C receptor [4]): 89.0%; %binding (5-HT2C receptor [4]): 89.0%; Ki (5-HT2C receptor [4]): 5.9 nM; SI, selectivity index, 2C (5-HT2C receptor [4]): 1.0"
